# According to a melting point compilation (Tetko et al.; mined from patent text by program, amines drawn as free bases though some values may be those of a salt):
row,SMILES,melting point
1,O=C(O)c1ccc(C(=O)OC(c2ccc3c(c2)OCO3)c2ccc3c(c2)OCO3)s1,141 to 148 °C
2,COc1ccc(N2CN(CC(=O)O)C(=O)C23CCN(C(=O)OC(C)(C)C)CC3)cc1,173 to 174 °C
3,C=C(C)OC(=O)N1c2cc(Cl)ccc2NC(=S)[C@@H]1C,148 to 150 °C
4,CC(CC(Sc1cc(C(C)(C)C)c(O)c(C(C)(C)C)c1)Sc1cc(C(C)(C)C)c(O)c(C(C)(C)C)c1)Sc1cc(C(C)(C)C)c(O)c(C(C)(C)C)c1 (centres undefined),125 to 126 °C
5,CCCCN1C(=O)NC(C(C)O)C1=O (centres undefined),145 °C
6,CN=Cc1c(C(=O)OC)[nH]c2c(C)ccc(C)c12,261 to 262 °C
7,COc1ccc2cc(CN(C)C(=O)c3oc4ccccc4c3CCc3ccccc3)ccc2c1Br,54 to 57 °C
8,CS(=O)(=O)c1ccc(-c2cnn(-c3cccc(Cl)c3)c(=O)c2Oc2cccc(F)c2)cc1,178 to 180 °C
9,O=C(NCc1cncs1)c1ccnc(N2CCN(Cc3ccc(F)cc3)C2=O)c1,148 to 150 °C
10,OC[C@H](O)CCOc1nc(N2CCNCC2)nc2ccccc12,151 to 156 °C
11,COCCOc1cc2ncc(C#N)c(Nc3ccc4cn[nH]c4c3)c2cc1OCCOC,105 to 110 °C
12,CCn1c(Cl)nc2cc(C(F)(F)F)c(Cl)c(N)c21,134 to 142 °C
13,CS(=O)c1c(C(=O)c2cnoc2C2CC2)ccc(Cl)c1Cl (centres undefined),110 to 112 °C
14,O=C(NN=Cc1ccc(C(F)(F)F)cc1)c1ccc(O)cc1,260 °C
15,Nc1nnc(-c2ccc(F)c(F)c2Nc2ccc(Br)cc2F)o1,245 °C
16,O=C(Nc1ccc(Br)cc1)C(=O)N1CCC(Cc2ccc(F)cc2)CC1,156 to 158 °C
17,CSc1ccc(-c2ccc(S(=O)(=O)CC(CO)N(O)C=O)cc2)cc1 (centres undefined),161 to 162 °C
18,O=C(O)CCC(O)c1ccc(-c2ccc(F)cc2Cl)cc1 (centres undefined),78 to 79 °C
19,Cc1ccc(S(=O)(=O)OCCC2(C)OCCc3nc(-c4ccccc4)sc32)cc1 (centres undefined),86 to 87 °C
20,CNC(=O)C(Cc1ccc(OC)cc1)NC(=O)C(C)(CC(C)C)c1ccc(OC)cc1SCc1ccc(OC)cc1 (centres undefined),150 to 158 °C
21,Cc1cc(O)ccc1Nc1ccccc1C(=O)O,209 to 211 °C
22,CCOC(=O)c1ccccc1N(CC(=O)N(C)c1ccccc1)C(=O)CNC(=O)Nc1cccc(C)c1,201 °C
23,CCNC(=O)CNc1c(C#N)cnn1-c1ccc(C(F)(F)F)cc1Cl,144 to 145 °C
24,O=C(Nc1ccccc1)N1CCC(CN2CCc3c([nH]c4ccccc34)C2)CC1,207 to 209 °C
25,COc1coc2ccc(OCCCCCCN3CCC(O)CC3)cc2c1=O,124 to 125 °C

row,SMILES,melting point
1,CCOC(=O)[C@@H]1C[C@@H](O)CN1S(C)(=O)=O,111 to 113 °C
2,CC(C)C(NC(=O)OCc1ccccn1)C(=O)NC(Cc1ccccc1)C(O)C(Cc1ccccc1)NC(=O)C(NC(=O)OCc1ccccn1)C(C)C (centres undefined),155 to 156 °C
3,O=C(CCCCCCc1ccccc1)c1c(O)c2cccnc2n(-c2ccccc2)c1=O,153 to 154 °C
4,COC(=O)C(C)(C)CCCOc1cc(C)c(OCc2ccccc2)cc1C,75.5 to 76.5 °C
5,CC(C)c1cccc(C(C)C)c1-n1nnn(C(C)C)c1=S,109 to 111 °C
6,CCOC(=O)c1c(O)c2cnc(SC)nc2n(C)c1=O,166 to 168 °C
7,COC(=O)c1cc(-c2cccc(C(F)(F)F)c2)c(=O)n2c1-c1sccc1SCC2,190 to 191 °C
8,O=C(Nc1nccs1)C(CC1CCCC1)c1cccc(S(=O)(=O)C(F)(F)F)c1 (centres undefined),61 to 64 °C
9,COc1cccc(C(=O)CCCN2CCC(O)(c3ccc(Cl)cc3)CC2)c1,127 to 129 °C
10,O=C(N[C@@H](Cc1ccccc1)C(=O)CSCc1ccco1)OCc1ccccc1,64 °C
11,Cc1c(NC(=O)c2ccc(-c3ccc4c(c3)CCCCO4)cc2)ccc2cc(CN3CCCC3)cnc12,162 to 163 °C
12,CCOC(=O)CC1=C(O)c2sccc2S(=O)(=O)N1C,161 to 163 °C
13,COC(=O)CCCc1cc2cc(Cl)ccc2n1S(=O)(=O)c1ccc2ccccc2c1,116 to 118 °C
14,O=c1cc(CN2CCOCC2)oc(-c2ccc(O)cc2)c1,162 to 164 °C
15,O=C(c1ccc(F)cc1)C1CCN(CCCc2nc3ccccc3c(=O)[nH]2)CC1,184 °C
16,N#Cc1ccccc1OC1SCC(O)C(O)C1O (centres undefined),130 to 132 °C
17,C/C(N)=C/C(=O)OCCOC/C(C)=C/c1ccc(Cc2cccnc2)cc1,67 to 70 °C
18,CCOC(=O)C(=C(c1ccc(F)cc1)c1ccc(F)cc1)c1nnn(CC)n1,113 to 114 °C
19,COC(=O)c1cc(-c2ccc(C)cc2)n(Cc2ccc(Cl)c(Cl)c2)n1,98.6 °C
20,COC(=O)CCc1ccc(OCc2nc(-c3ccccc3)c(-c3ccccc3)o2)cc1,92 to 95 °C
21,Cn1c2c(c3cc(O)ccc31)CC(CO)C2 (centres undefined),153 to 154 °C
22,Cn1cc(C(=O)O)c(=O)c2c3cc(N4CCC[C@H]4CNc4ccccc4)c(F)cc3ncc21,250 °C
23,OCc1cn(C(c2ccccc2)(c2ccccc2)c2ccccc2)nn1,200 to 201 °C
24,c1cnc2c(c1)Cc1ncccc1-2,85 °C
25,O=Cc1cc(OCc2ccccc2)c(OCc2ccccc2)cc1Cl,100 to 102 °C

row,SMILES,melting point
1,O=C1NC(=O)C(=Cc2ccc(S(=O)(=O)CCCc3ccccc3)cc2)S1,224 to 225 °C
2,CC(C)(C)[Si](OCCOc1ccc(N)cn1)(c1ccccc1)c1ccccc1,59 to 61 °C
3,COc1nc(C)c(C)nc1NC(=S)N1CCN(c2cccc(Br)c2)CC1,136 to 138 °C
4,N#Cc1ccc(COCCn2cnc3c(N)nc4ccccc4c32)cc1,238 to 239 °C
5,CC(=O)Nc1ccc(C(=O)N(CCN2CCC(C(=O)c3ccc(F)cc3)CC2)c2ccc(O)cc2)cc1,133 to 137 °C
6,CC(C)CN1CCN(c2cc3ccccc3c(=O)[nH]2)CC1CO (centres undefined),130 to 132 °C
7,Oc1ccc2c(-c3cccc4ccc(O)cc34)noc2c1,262 to 264 °C
8,CSc1nn(C)c(=O)n1-c1ccccc1Oc1ccccc1,129 to 130 °C
9,CCCCCCCCCCCCCCCCCCCCCCCCCCCCOC(=O)c1cccnc1,65 to 70 °C
10,O=C(O)C(CCc1ccccc1)Oc1c(Br)cc(-c2ccc(-c3c(Cc4ccccc4)sc4ccccc34)cc2)cc1Br (centres undefined),85 to 87 °C
11,COC(=O)COCc1c(OC)ccc(OC)c1C=O,177 to 179 °C
12,O=C(Sc1ccccc1)c1cc2cc(CCl)ccc2oc1=O,164 to 166 °C
13,O=C(NC(=O)c1c(F)cccc1F)Nc1cncc(C(F)(F)F)c1,233 to 235 °C
14,CCOC(=O)C1=C(C)NC(CN2C(=O)c3ccccc3C2=O)=C(C(=O)OCC)C1c1cccc(Cl)c1 (centres undefined),135 to 136 °C
15,Cc1ccc2ncn([C@H](C)[C@](O)(Cn3cncn3)c3ccc(F)cc3F)c(=O)c2c1,189 to 190 °C
16,CN(C)c1ccc(N=Nc2nc3ccccc3s2)cc1,243 to 246 °C
17,Cc1ccc(C(=O)N2CCc3cc(C(=O)NO)ccc3C2)cc1,105 to 108 °C
18,CN1CCN(CC2COCc3nc4c(N)nc5ccccc5c4n32)CC1 (centres undefined),187 to 190 °C
19,COc1ccc(-c2cccc3c2N(S(=O)(=O)c2ccc(OC)cc2)CC3)cc1,176 to 177 °C
20,CC(=O)NC(=C(C)C(=O)O)c1ccccc1,190 °C
21,CC12CCCc3cc(C(=O)O)cc(c31)CCC2,213 to 215 °C
22,CNc1ncnc2c1ncn2CCCN1CCN(c2ccccc2)CC1,162 to 163 °C
23,Cc1cccc(NC(=O)NC2N=C(C3CC3)c3cccc(C)c3N(CC(=O)N3CC4CCC(CC4)C3)C2=O)c1 (centres undefined),172 to 174 °C
24,Cc1cc2cc(N=[N+]=[N-])ccc2[nH]1,57 to 60 °C
25,CCc1nc(NC2CCCC2)c(-c2ccccc2)c(NC2CCCC2)n1,70 to 71 °C

row,SMILES,melting point
1,COc1ccc(C(C)c2cc(O)ccc2OC)cc1 (centres undefined),81 to 83 °C
2,C#CCNc1nnc(-c2ccccc2)cc1C,101 °C
3,Cc1ccc(C#N)c(N2CCc3ccccc3CC2)n1,78.5 to 80.7 °C
4,CCCc1nn(-c2ccc(C(F)(F)F)cn2)cc1CCCCOc1ccc(CC(=O)O)cc1,121 to 122 °C
5,CC(/C=C/CC(C)c1cc(C(C)(C)C)cc(C(C)(C)C)c1)=C\C(=O)O (centres undefined),127 to 128 °C
6,CCOn1nnnc1SC[PH](=O)O,120 to 122 °C
7,COc1cc([N+](=O)[O-])c(CCC(=O)O)c([N+](=O)[O-])c1O,195 °C
8,COc1ccc(CCCC(=O)Nc2ncc([N+](=O)[O-])s2)cc1,176 to 177 °C
9,Cc1ccc(C2(c3ccc(C)cc3)NC(=O)N(CCCN3CCC(C#N)(c4ccccc4)CC3)C2=O)cc1,157 to 159 °C
10,CCCCn1nc(-c2ccccc2)c(CC(=O)O)c1-c1ccccc1,97 to 98 °C
11,O=C1CCCc2sc(-c3ccncc3)cc21,156 to 158 °C
12,O=C1c2ccccc2-c2csc(N3C(=O)c4ccccc4C3=O)c21,197 to 199 °C
13,O=C(O)CCc1ccc(-c2nc(=O)c3ccccc3s2)nc1,232 °C
14,CCc1nn(-c2ccccn2)c2[nH]c3cc(F)c(F)cc3c(=O)c12,247 to 248 °C
15,COC1C=C(C)C(=O)CC(C)(C)C1OC(=O)c1ccc([N+](=O)[O-])cc1 (centres undefined),122 to 123 °C
16,NC(=O)c1nnn(Cc2ccc(C(=O)c3c(Cl)cccc3Cl)cc2)c1N,165 to 167 °C
17,Nc1ccc(Oc2ccc(C3(c4ccc(Oc5ccc(N)cc5)cc4)CCC(c4ccccc4)CC3)cc2)cc1,90.7 to 92.2 °C
18,COc1c(F)cc(Br)c(C(=O)O)c1F,92 to 94 °C
19,O=C1NC(=O)C(S(=O)c2ccc3ccccc3c2)S1 (centres undefined),157 to 158 °C
20,COc1ccc(-c2nnc3c4ccccc4c(Nc4cccc(C(=O)Nc5ccc(N(C)C)cc5)c4)nn23)cc1,314 to 318 °C
21,O=C(O)C1CCC2CCC(=O)N21 (centres undefined),145 to 148 °C
22,Cc1cccc(C)c1Oc1ccc2ccc(N)nc2n1,218 °C
23,C[C@@H](n1ncn(-c2ccc(OCC(F)(F)C(F)F)cc2)c1=O)[C@](O)(C=O)c1ccc(F)cc1F,134 to 136 °C
24,CNC(=O)C(C)n1c(-c2ccc(Cl)cc2)nc2cccnc21 (centres undefined),217 to 218 °C
